Consider one substance from article PMC11984388, “A brain-accessible peptide modulates stroke inflammatory response and neurotoxicity by targeting BDNF-receptor TrkB-T1 specific interactome” (Theranostics, 2025).

The data set concerns neurons of primary cortical cultures. Kind of data set: Neuronal viability (MTT) in non-stimulated cultures. It counts as cell-based, rat. On the procedure:
Cultures were prepared from cerebral cortex of 18-day-old Wistar rat embryos, both genders indistinctly included. Unless otherwise indicated, glial growth was inhibited after 7 days in vitro (DIVs), experimental treatments taking place after 12 DIVs. These cultures present a high percentage of neurons, combined with glial cells, mostly astrocytes. To induce excitotoxicity, cultures were incubated with NMDA (100 µM) and its co-agonist glycine (10 µM), herein denoted simply as NMDA, which induce a strong excitotoxic response in mature neurons but have no effect on astrocyte viability,[47]. When indicated, cultures were preincubated for 30 min with indicated concentrations of Tat-derived CPPs before NMDA treatment, peptides being kept in the medium along treatment. Total cell or neuronal viability assessment was established by the thiazolyl blue formazan (MTT) reduction assay. Further details are provided as Supplementary material. […]
skull for 10 min. Br ain injury encompas se s damage to vas cular endothelium, platelet activation, and subs equent microvascula r thrombotic occlus ion of the irradiate d region. The ar eas underneath this ste reotaxic position that result irradiate d ar e the prima ry motor cortex and the prima ry soma tos ens ory cortex (hindlimb and forelimb). Once completed surgery, the incision was sutured, and mice were allowed to recover. […]

Take Ac-YGRKKRRQRRRPPFVLFHKIPLDG-NH2 [TT1Ct]: the Intrinsic toxicity result (concentrations lower than 25 µM) was “not intrinsically toxic”. The “Toxicity for non-stimulated cultures” value (higher dose employed (25 µM)) is reported as “toxic”.
